Read-outs that look alike come from different tables or passages of the source.
Columns and labels:
[1] = molecular target: MAT2A recombinant protein (Homo sapiens, UniProt P31153); assay: MAT2A inhibitory activity (malachite green colorimetric enzyme assay); format: biochemical
Summary of the method: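 Recombinant human MAT2A with L-methionine and ATP in 50 mM HEPES pH 7.5, 50 mM KCl, 10 mM MgCl2, 10 mM DTT, 60 min at room temperature. Phosphate released detected by malachite green reagent (15 min) at 630 nm. Ten-point 1:3 series from 1000 nM final; IC50 by variable-slope non-linear regression.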

[2] = system: Hut-78 cell strain; assay: Tumor cell proliferation inhibition assay (CellTiter-Glo), Hut-78; format: cell-based; conditions: Hut-78 cells, 5-day treatment
Protocol: (§1) After the HCT116-MTAP-knockout (−/−) cell strain, the HCT116-MTAP wild-type(+/+)-cell strain, the DOHH-2 cell strain, or the Hut-78 cell strain was treated with the test compound for 5 days, the ATP level was measured using a CellTiter-Glo kit of Promega to evaluate the inhibition of the test compound against the growth of the tumor cell strain.
(§2) In the present application, the HCT116-MTAP-knockout (−/−) cell strain, the HCT116-MTAP wild-type (+/+)-cell strain, the DOHH-2 cell strain, or the Hut-78 cell strain was seeded into a 96-well cell culture plate at an appropriate cell density. After 24 h, the cells were treated using the test compounds diluted 1:3 fold at the highest concentration of 10 μM for 10 gradients, and a DMSO treatment group was set up separately. The cells were cultured in a 37° C./5% CO2 incubator for 5 days.

[3] = system: SDMA in HCT116-MTAP-knockout cell line; assay: Cell symmetric dimethylarginine (SDMA) test, In-cell Western, HCT116-MTAP-knockout; format: cell-based; conditions: Homo sapiens, 96 h
[4] = system: SDMA in human colon cancer cell line HCT116; assay: Cell symmetric dimethylarginine (SDMA) test, In-cell Western, HCT116 (MTAP wild-type); format: cell-based; conditions: Homo sapiens, HCT-116, 96 h
Summary of the method: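 HCT116 cells treated 4 days at 37° C with compound, top concentration 6 μM, 1:4 dilutions, 6 points, versus DMSO. Fixed cells stained for SDMA with DRAQ5 normalisation; 800/700 nm ratio after background subtraction fitted by non-linear regression for IC50.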

[5] = system: HCT116-MTAP-knockout (−/−) cell strain; assay: Tumor cell proliferation inhibition assay (CellTiter-Glo), HCT116-MTAP-knockout (-/-); format: cell-based; conditions: Homo sapiens, 120 h, 5-day treatment
Protocol: as §1, §2

[6] = system: HCT116-MTAP wild-type (+/+)-cell strain; assay: Tumor cell proliferation inhibition assay (CellTiter-Glo), HCT116-MTAP wild-type (+/+); format: cell-based; conditions: Homo sapiens, 120 h, 5-day treatment
Protocol: as §1, §2

[7] = Pharmacokinetic test in mice (IV and PO); format: in vivo; conditions: BALB/c mice; for AUC / clearance / bioavailability / half-life / Vd: mouse, plasma; for half-life: read-out: T½ (converted); for Vd: read-out: Vz; for AUC (in words) / half-life (T½) (in words): summary of Table 7
[8] = IC50 score class, read-out: MAT2A Inhibition (score)
[9] = Homo sapiens, HuT78, 120 h, IC50 score, read-out: Tumor cell 5-day relative growth inhibition (Hut-78) (nM), score
[10] = Homo sapiens, HuT78, 120 h, IC50 value, read-out: Tumor cell 5-day relative growth inhibition (Hut-78)
[11] = IC50 score class, read-out: Cell 96 h SDMA Inhibition (HCT116-MTAP−/−) (score)
[12] = read-out: Cell 96 h SDMA Inhibition (HCT116-MTAP−/−)
[13] = IC50 score class, read-out: Cell 96 h SDMA Inhibition (HCT116-MTAP+/+) (score)
[14] = read-out: Cell 96 h SDMA inhibition (HCT116-MTAP+/+)
[15] = HCT116-MTAP-knockout (−/−) cells, IC50 score, read-out: Tumor cell 5-day relative growth inhibition (HCT116-MTAP−/−) (nM), score
[16] = HCT116-MTAP-knockout (−/−) cells, IC50 value, read-out: Tumor cell 5-day relative growth inhibition (HCT116-MTAP−/−)
[17] = HCT116-MTAP wild-type (+/+) cells, IC50 score, read-out: Tumor cell 5-day relative growth inhibition (HCT116-MTAP+/+) (nM), score
[18] = HCT116-MTAP wild-type (+/+) cells, IC50 value, read-out: Tumor cell 5-day relative growth inhibition (HCT116-MTAP+/+)

Chain of MAT2A recombinant protein (P31153 whole entry): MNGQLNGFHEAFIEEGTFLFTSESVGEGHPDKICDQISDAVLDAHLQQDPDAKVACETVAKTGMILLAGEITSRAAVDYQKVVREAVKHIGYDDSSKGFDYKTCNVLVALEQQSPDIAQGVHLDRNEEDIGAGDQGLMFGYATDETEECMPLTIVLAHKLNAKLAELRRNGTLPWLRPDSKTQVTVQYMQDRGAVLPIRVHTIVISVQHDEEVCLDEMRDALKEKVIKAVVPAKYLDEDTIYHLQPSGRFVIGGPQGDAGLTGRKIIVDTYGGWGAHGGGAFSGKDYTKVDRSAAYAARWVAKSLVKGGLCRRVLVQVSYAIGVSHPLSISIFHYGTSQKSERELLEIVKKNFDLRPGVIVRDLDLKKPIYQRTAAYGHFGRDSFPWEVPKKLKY

Compound | IC50 [1, 8] | IC50 ([1]; read-out: MAT2A Inhibition) | IC50 [2, 9] | IC50 [2, 10] | IC50 [3, 11] | IC50 [3, 12] | IC50 [4, 13] | IC50 [4, 14] | further results
Cn1cc2c(n1)c(=O)n(Cc1ccn[nH]1)c1nc(C(F)(F)F)ccc21 [Compound B123] | < 100 nM | 53.7 nM | ≥ 2000 nM | > 2000 nM |  |  |  |  | 
O=c1c2nn(C(F)F)cc2c2cc(F)c(C3CC3)nc2n1-c1cccnc1C1CC1 [Compound B361] | < 100 nM | 15 nM |  |  | < 200 nM | 12 nM | > 3000 nM | > 10000 nM | IC50 [5, 15]: < 500 nM; IC50 [5, 16]: 128 nM; IC50 [6, 17]: ≥ 2000 nM; IC50 [6, 18]: > 10000 nM; AUC ([7]; IV 2 mg/kg): 31.5 µM·h; clearance ([7]; IV 2 mg/kg): 2.42 mL/min/kg; bioavailability ([7]; IV 2 mg/kg, PO 10 mg/kg): 65%; half-life ([7]; IV 2 mg/kg): 6.4 h; Vd ([7]; IV 2 mg/kg): 1.34 L/kg; AUC ([7]; PO 10 mg/kg): 93.4 µM·h; half-life ([7]; PO 10 mg/kg): 8 h
Cn1cc2c(n1)c(=O)n(-c1cccnc1C1CC1)c1nc(C(F)(F)F)ccc21 [Compound B183] |  |  | < 500 nM | 108 nM | < 200 nM | 47.9 nM | < 200 nM | 130 nM | 
Cn1cc2c(n1)c(=O)n(-c1cccc(F)c1)c1nc(C(F)(F)F)ccc21 [Compound B193] | < 100 nM | 25 nM | 500 to 2000 nM | 696 nM | 200 to 1000 nM | 387 nM | 1000 to 3000 nM | 2110 nM | 
Cn1cc2c(n1)c(=O)n(-c1ccc3[nH]cnc3c1)c1cc(Cl)ccc21 [Compound B206] | < 100 nM | 93 nM | ≥ 2000 nM | > 2000 nM | 1000 to 3000 nM | 1180 nM | 1000 to 3000 nM | 1290 nM | 
Cc1c2c(nn1C(F)F)c(=O)n(-c1cccc3[nH]ncc13)c1nc(C(F)(F)F)ccc21 [Compound B254] | < 100 nM | 23.7 nM |  |  | < 200 nM | 67 nM |  |  | IC50 [5, 15]: < 500 nM; IC50 [5, 16]: 382 nM; IC50 [6, 17]: 500 to 2000 nM; IC50 [6, 18]: 1630 nM; AUC (in words) [7]: relatively high; half-life (T½) (in words) [7]: relatively long; AUC ([7]; IV 2 mg/kg): 245 µM·h; clearance ([7]; IV 2 mg/kg): 0.317 mL/min/kg; bioavailability ([7]; IV 2 mg/kg, PO 10 mg/kg): 126%; half-life ([7]; IV 2 mg/kg): 5.73 h; Vd ([7]; IV 2 mg/kg): 0.2 L/kg; AUC ([7]; PO 10 mg/kg): 1470 µM·h; half-life ([7]; PO 10 mg/kg): 5.79 h
Cc1ncccc1-n1c(=O)c2nn(C)cc2c2ccc(C(F)(F)F)nc21 [Compound B179] |  |  |  |  |  |  |  |  | IC50 ([2]; IC50 score, read-out: Tumor cell 5-day relative growth inhibition (Hut-78) (nM), score): ≥ 2000 nM; IC50 ([2]; IC50 value, read-out: Tumor cell 5-day relative growth inhibition (Hut-78)): 7990 nM
Cn1cc2c(n1)c(=O)n(-c1cccnc1C#N)c1nc(C(F)(F)F)ccc21 [Compound B207] |  |  | < 500 nM | 179 nM | < 200 nM | 106 nM | 200 to 1000 nM | 495 nM | 
COc1cc(Cl)cc2c1c1cn(C)nc1c(=O)n2-c1cccnc1 [Compound B176] | < 100 nM | 24.6 nM | 500 to 2000 nM | 985 nM | 200 to 1000 nM | 263 nM | 1000 to 3000 nM | 1320 nM | 
[2H]C([2H])([2H])n1cc2c(n1)c(=O)n(-c1cccc3[nH]ncc13)c1nc(C(F)(F)F)ccc21 [Compound B256] | < 100 nM | 16.9 nM |  |  | < 200 nM | 28 nM |  |  | IC50 [5, 15]: < 500 nM; IC50 [5, 16]: 29.5 nM; IC50 [6, 17]: 500 to 2000 nM; IC50 [6, 18]: 577 nM; AUC (in words) [7]: relatively high; half-life (T½) (in words) [7]: relatively long; AUC ([7]; IV 2 mg/kg): 37.8 µM·h; clearance ([7]; IV 2 mg/kg): 2.28 mL/min/kg; bioavailability ([7]; IV 2 mg/kg, PO 10 mg/kg): 175%; half-life ([7]; IV 2 mg/kg): 5.28 h; Vd ([7]; IV 2 mg/kg): 1 L/kg; AUC ([7]; PO 10 mg/kg): 331 µM·h; half-life ([7]; PO 10 mg/kg): 8.61 h
O=c1c2nn(C(F)F)cc2c2ccc(C(F)(F)F)nc2n1-c1cccc2[nH]ncc12 [Compound B245] | < 100 nM | 11 nM |  |  | < 200 nM | 110 nM | > 3000 nM | 7200 nM | IC50 [5, 15]: < 500 nM; IC50 [5, 16]: 242 nM; IC50 [6, 17]: 500 to 2000 nM; IC50 [6, 18]: 1100 nM; AUC (in words) [7]: relatively high; half-life (T½) (in words) [7]: relatively long; AUC ([7]; IV 2 mg/kg): 200 µM·h; clearance ([7]; IV 2 mg/kg): 0.3 mL/min/kg; bioavailability ([7]; IV 2 mg/kg, PO 10 mg/kg): 80%; half-life ([7]; IV 2 mg/kg): 10.8 h; Vd ([7]; IV 2 mg/kg): 0.3 L/kg; AUC ([7]; PO 10 mg/kg): 807 µM·h; half-life ([7]; PO 10 mg/kg): 18 h
Cn1cc2c(n1)c(=O)n(-c1cccnc1Cl)c1nc(C(F)(F)F)ccc21 [Compound B196] | < 100 nM | 45.1 nM | < 500 nM | 9.3 nM | < 200 nM | 25.3 nM | 200 to 1000 nM | 691 nM | 
Cn1cc2c(n1)c(=O)n(-c1cccc(C#N)c1)c1nc(C(F)(F)F)ccc21 [Compound B192] | < 100 nM | 26.9 nM | < 500 nM | 378 nM | 200 to 1000 nM | 255 nM | 1000 to 3000 nM | 2450 nM | 
Cn1cc2c(n1)c(=O)n(-c1ccnn1C)c1cc(Cl)ccc21 [Compound B58] | < 100 nM | 55.2 nM | < 500 nM | 206 nM | 200 to 1000 nM | 267 nM | 1000 to 3000 nM | 1190 nM | 
O=c1c2nn(C3CCOC3)cc2c2ccc(C(F)(F)F)nc2n1-c1cccnc1 (stereo not shown) [Compound B204] | < 100 nM | 67.4 nM | < 500 nM | 312 nM | 1000 to 3000 nM | 1850 nM | 1000 to 3000 nM | 1190 nM | 
Cc1cc(-n2c(=O)c3nn(C)cc3c3ccc(Cl)cc32)n(C)n1 [Compound B175] | < 100 nM | 80.5 nM | ≥ 2000 nM | 2040 nM | 200 to 1000 nM | 993 nM | > 3000 nM | 6980 nM | 
Cn1cc2c(n1)c(=O)n(-c1ccccc1)c1nc(C(F)(F)F)ccc21 [Compound B177] | < 100 nM | 24.3 nM | 500 to 2000 nM | 866 nM | 200 to 1000 nM | 300 nM | 200 to 1000 nM | 858 nM | 
COc1ncccc1-n1c(=O)c2nn(C)cc2c2ccc(C(F)(F)F)nc21 [Compound B203] | < 100 nM | 51.4 nM | < 500 nM | 40.4 nM | < 200 nM | 66.6 nM | 200 to 1000 nM | 634 nM | 
N#Cc1cc2c3c[nH]nc3c(=O)n(-c3cccc4[nH]ncc34)c2cc1Cl [Compound B394] | < 100 nM | 19 nM |  |  | < 200 nM | 26 nM | > 3000 nM | > 10000 nM | IC50 ([5]; HCT116-MTAP−/− cells, IC50 class score, read-out: Tumor cell 5-day relative growth inhibition (HCT116-MTAP−/−) (nM), score): < 500 nM; IC50 ([5]; HCT116-MTAP−/− cells, read-out: Tumor cell 5-day relative growth inhibition (HCT116-MTAP−/−)): 359 nM; IC50 ([6]; HCT116-MTAP+/+ cells, IC50 class score, read-out: Tumor cell 5-day relative growth inhibition (HCT116-MTAP+/+) (nM), score): ≥ 2000 nM; IC50 ([6]; HCT116-MTAP+/+ cells, read-out: Tumor cell 5-day relative growth inhibition (HCT116-MTAP+/+)): 6840 nM

From US20240391923A1, “METHIONINE ADENOSYLTRANSFERASE 2A INHIBITOR FOR TREATING MTAP DELETION-TYPE CANCER” (SUZHOU GENHOUSE BIO CO., LTD., priority 2022, published 2024)
